{"source": "patent US20230348564A1", "about": "“ANTI-CANCER PROTEINS” (UNICHEM LABORATORIES LTD, priority 2020, published 2023)", "format_in_all_cases": "cell-based, Human", "key": {"PANC-1": {"tested_on": "PANC-1", "test": "Annexin-V staining (flow cytometry)", "conditions": "24 h", "procedure": "(§1) The cell lines were maintained in DMEM+10% FBS (heat inactivated) at 37° C. with 5% CO2, and 95% humidity. Antibiotics Penicillin (100 U/mL) and Streptomycin (100 μg/mL) were added to the medium.\n(§2) The stock solution of recombinant lectin having the amino acid sequence of SEQ ID NO. […] Doxorubicin was used as positive control and stock solution was prepared in DMSO.\n(§3) Cells were counted using hemocytometer and plated in culture plates at the density of 0.4×10^6 cells/well in DMEM+10% FBS in 6-well plates. Cells were incubated overnight to allow the cell recovery and exponential growth. Following overnight incubation, cells were treated with Lectin having the amino acid sequence of SEQ ID NO. 2 in DMEM+0% FBS at concentrations ranging from 2.5 μg/mL to 80 μg/mL. Untreated cells were included as Control group for sample. Cells treated with Doxorubicin were included as Positive Control group. DMSO treated cells were included as control group for Doxorubicin. After treatment, cells were incubated for a time period of 24 h.\n(§4) Following incubation, the pro-apoptotic effect was estimated using Annexin assay kit as follows: Annexin reagent contains Annexin-V+7-AAD stain, which differentially labels apoptotic cells in different phases. Four populations of cells can be determined from the flow cytometric plots as follows: • a) Upper Left (UL)—7-AAD(+)/Annexin(−) or Necrotic cells • b) Upper Right (UR)—7-AAD(+)/Annexin(+) or Late apoptotic cells • c) Lower Left (LL)—7-AAD(−)/Annexin(−) or Viable/non-apoptotic cells • d) Lower Right (LR)—7-AAD(−)/Annexin(+) or Early apoptotic cells\n(§5) Cells were gently harvested into pre-labeled sterile centrifuge tubes and centrifuged at 300×g for 5-7 min. Supernatant were discarded and the pellet was resuspended in 200 μl of fresh culture medium.\n(§6) 100 μl of cell suspension was transferred into pre-labeled sterile centrifuge tubes.\n(§7) 100 μl of Annexin-V reagent was added to each tube and incubated for 30 min at RT in dark.\n(§8) Cells stained for Annexin-V were then transferred into 96-well plates and acquired on flow cytometer (Guava technologies). Percentage of cells in early apoptotic, late apoptotic and necrotic phase were determined.\n(§9) Fold increase in apoptotic cells (treated with Test Items) was determined as compared to Control (untreated cells)."}, "MDA-MB-231": {"tested_on": "MDA-MB-231", "test": "Annexin-V staining (flow cytometry)", "conditions": "24 h", "procedure": "as §1, §2, §3, §4, §5, §6, §7, §8, §9"}, "VEGFR2": {"tested_on": "VEGFR2", "test": "biomarker levels in IOMM-Lee by multiplex analysis", "source_text": "(§10) Effect of SEQ ID No 2 on the expression of following 7 biomarkers were estimated in Human Meningioma cell line (IOMM-Lee) using multiplex analysis: TNF-alpha, VEGF, VEGFR2, HGF, HGFR/c-MET, PDGF-BB, and Contactin-1. Levels of another marker, Notch-1 were also estimated by ELISA in the same cell line. These 8 biomarkers play very crucial role in the pathogenesis and progression of Brain Tumor. […] Supernatants were collected and the levels of these 8 markers were investigated."}, "Contactin-1": {"tested_on": "Contactin-1", "test": "biomarker levels in IOMM-Lee by multiplex analysis", "source_text": "as §10"}, "VEGF": {"tested_on": "VEGF", "test": "biomarker levels in IOMM-Lee by multiplex analysis", "source_text": "as §10"}, "HGFR/c-MET": {"tested_on": "HGFR/c-MET", "test": "biomarker levels in IOMM-Lee by multiplex analysis", "source_text": "as §10"}, "HGF": {"tested_on": "HGF", "test": "biomarker levels in IOMM-Lee by multiplex analysis", "source_text": "as §10"}, "PDGF-BB": {"tested_on": "PDGF-BB", "test": "biomarker levels in IOMM-Lee by multiplex analysis", "source_text": "as §10"}, "TNF-α": {"tested_on": "TNF-α", "test": "biomarker levels in IOMM-Lee by multiplex analysis", "source_text": "as §10"}}}
{"smiles": "COc1cccc2c1C(=O)c1c(O)c3c(c(O)c1C2=O)C[C@@](O)(C(=O)CO)C[C@@H]3O[C@H]1C[C@H](N)[C@H](O)[C@H](C)O1", "note": "[Doxorubicin, reference compound]", "values": [{"measurement": "% Population of cells, LL Annex− 7AAD− Viable", "setting": "PANC-1; 10 μM", "result": 25.6, "unit": "%"}, {"measurement": "% Population of cells, LR Annex+ 7AAD− Early apoptotic", "setting": "PANC-1; 10 μM", "result": 6.0, "unit": "%"}, {"measurement": "% Population of cells, UL Annex− 7AAD+ Necrotic", "setting": "PANC-1; 10 μM", "result": 0.5, "unit": "%"}, {"measurement": "% Population of cells, UR Annex+ 7AAD+ Late apoptotic", "setting": "PANC-1; 10 μM", "result": 67.9, "unit": "%"}, {"measurement": "% Population of cells, LL Annex− 7AAD− Viable", "setting": "PANC-1; 100 μM", "result": 1.3, "unit": "%"}, {"measurement": "% Population of cells, LR Annex+ 7AAD− Early apoptotic", "setting": "PANC-1; 100 μM", "result": 1.9, "unit": "%"}, {"measurement": "% Population of cells, UL Annex− 7AAD+ Necrotic", "setting": "PANC-1; 100 μM", "result": 0.1, "unit": "%"}, {"measurement": "% Population of cells, UR Annex+ 7AAD+ Late apoptotic", "setting": "PANC-1; 100 μM", "result": 96.6, "unit": "%"}, {"measurement": "% Population of cells, LL Annex− 7AAD− Viable", "setting": "MDA-MB-231; 10 μM", "result": 0.7, "unit": "%"}, {"measurement": "% Population of cells, LR Annex+ 7AAD− Early apoptotic", "setting": "MDA-MB-231; 10 μM", "result": 6.8, "unit": "%"}, {"measurement": "% Population of cells, UL Annex− 7AAD+ Necrotic", "setting": "MDA-MB-231; 10 μM", "result": 0.0, "unit": "%"}, {"measurement": "% Population of cells, UR Annex+ 7AAD+ Late apoptotic", "setting": "MDA-MB-231; 10 μM", "result": 92.5, "unit": "%"}, {"measurement": "% Population of cells, LL Annex− 7AAD− Viable", "setting": "MDA-MB-231; 100 μM", "result": 0.0, "unit": "%"}, {"measurement": "% Population of cells, LR Annex+ 7AAD− Early apoptotic", "setting": "MDA-MB-231; 100 μM", "result": 0.0, "unit": "%"}, {"measurement": "% Population of cells, UL Annex− 7AAD+ Necrotic", "setting": "MDA-MB-231; 100 μM", "result": 0.0, "unit": "%"}, {"measurement": "% Population of cells, UR Annex+ 7AAD+ Late apoptotic", "setting": "MDA-MB-231; 100 μM", "result": 100.0, "unit": "%"}, {"measurement": "Percentage inhibition on levels of VEGFR2", "setting": "VEGFR2; 1 μM", "result": 38.2, "unit": "%"}, {"measurement": "Percentage inhibition on levels of VEGFR2", "setting": "VEGFR2; 10 μM", "result": 50.1, "unit": "%"}, {"measurement": "Percentage inhibition on levels of Contactin-1", "setting": "Contactin-1; 1 μM", "result": 50, "unit": "%"}, {"measurement": "Percentage inhibition on levels of Contactin-1", "setting": "Contactin-1; 10 μM", "result": 23.3, "unit": "%"}, {"measurement": "Percentage inhibition on levels of VEGF", "setting": "VEGF; 1 μM", "result": 53, "unit": "%"}, {"measurement": "Percentage inhibition on levels of VEGF", "setting": "VEGF; 10 μM", "result": 93.4, "unit": "%"}, {"measurement": "Percentage inhibition on levels of HGFR/c-MET", "setting": "HGFR/c-MET; 1 μM", "result": 45.5, "unit": "%"}, {"measurement": "Percentage inhibition on levels of HGFR/c-MET", "setting": "HGFR/c-MET; 10 μM", "result": 55.2, "unit": "%"}, {"measurement": "Percentage inhibition on levels of HGF", "setting": "HGF; 1 μM", "result": 45.3, "unit": "%"}, {"measurement": "Percentage inhibition on levels of HGF", "setting": "HGF; 10 μM", "result": 84, "unit": "%"}, {"measurement": "Percentage inhibition on levels of PDGF-BB", "setting": "PDGF-BB; 1 μM", "result": 12, "unit": "%"}, {"measurement": "Percentage inhibition on levels of PDGF-BB", "setting": "PDGF-BB; 10 μM", "result": 100, "unit": "%"}, {"measurement": "Percentage inhibition on levels of TNF-α", "setting": "TNF-α; 1 μM", "result": 67.8, "unit": "%"}, {"measurement": "Percentage inhibition on levels of TNF-α", "setting": "TNF-α; 10 μM", "result": 42.3, "unit": "%"}]}
